Source: patent US4978666A, “Optically active piperazine derivative” (Nippon Chemiphar Co., Ltd., priority 1988, dated 1990)
Counter-ions that a name gives are not always drawn.

Legend:
Assay type in all cases: in vivo
vertebral blood flow = test: Peripheral vasodilating effect (vertebral blood flow increase in anesthetized dogs); details: i.v., anesthetized mongrel dogs
Text: (§1) The peripheral vasodilating effect (action for increase of blood flow of vertebrae) and acute toxicity of (-)-1-(3,4-dimethoxyphenyl)-2-(4-diphenylmethylpiperazinyl)ethanol dihydrochloride according to the invention, (+)-1-(3,4-dimethoxyphenyl)-2-(4-diphenylmethylpiperazinyl)ethanol dihydrochloride, and (±)-1-(3,4-dimethoxyphenyl)-2-(4-diphenylmethylpiperazinyl)ethanol dihydrochloride are illustrated by the following examples.
Mongrel Dogs of both sexes each weighing about 10 kg were anesthetized with sodium pentobarbital (35 mg/kg, i.v.). Artificial respiration was performed with room air. The vertebral blood flow and femoral blood flow were measured by an electromagnetic flowmeter (avilable from Nihon Koden, MF-27 and MFV-1100) with flow probes. The blood pressure and heart rate were measured at the same time. […]

[1] = Acute toxicity (oral LD50 in rats); details: rat, in vivo, po, SD-strain female rats 150 to 200 g, observed for 2 weeks
Text: as §1
(§2) Each of the (-)-, (+)- and (±)-piperazine derivatives were orally administered to SD-strain female rats each having a body weight of 150 to 200 g.

[2] = Concentration in blood after administration to beagle dogs; details: as compared with administration of the (+)-derivative
SD-strain female rats = test: Acute toxicity (oral LD50 in rats); details: SD-strain female rats 150 to 200 g, observed for 2 weeks, 20160 min, dihydrochloride
Text: as §1, §2

| SMILES | Percentage of vertebral blood flow increase (vertebral blood flow; 0.03 mg/kg) [%] | Percentage of vertebral blood flow increase (vertebral blood flow; 0.1 mg/kg) [%] | LD50 at 336 h [1] [mg/kg] | concentration in blood (determined from an area of a measured blood concentration curve) [2] | Percentage of vertebral blood flow increase (vertebral blood flow; 0.03 mg/kg, dihydrochloride) [%] | Percentage of vertebral blood flow increase (vertebral blood flow; 0.1 mg/kg, dihydrochloride) [%] | LD50 (SD-strain female rats) [mg/kg] |
| --- | --- | --- | --- | --- | --- | --- | --- |
| COc1ccc(C(O)CN2CCN(C(c3ccccc3)c3ccccc3)CC2)cc1OC (racemic) [(±)-Derivative, (±)-1-(3,4-dimethoxyphenyl)-2-(4-diphenylmethylpiperazinyl)ethanol dihydrochloride] | 16.9 | 43.9 | 29.1 |  |  |  |  |
| COc1ccc(C(O)CN2CCN(C(c3ccccc3)c3ccccc3)CC2)cc1OC (single isomer, unassigned; (-)) [(-)-Derivative, (-)-1-(3,4-dimethoxyphenyl)-2-(4-diphenylmethylpiperazinyl)ethanol dihydrochloride] |  |  |  | high concentration in blood | 22.9 | 48.0 | 45.4 |
| COc1ccc(C(O)CN2CCN(C(c3ccccc3)c3ccccc3)CC2)cc1OC (single isomer, unassigned; (+)) [(+)-Derivative, (+)-1-(3,4-dimethoxyphenyl)-2-(4-diphenylmethylpiperazinyl)ethanol dihydrochloride] |  |  |  |  | 13.4 | 34.3 | 14.3 |
